{"source": "patent US7883713B2", "about": "“Topical application of thiazolyl amides” (AiCuris GmbH & Co. KG, priority 2001, dated 2011)", "key": {"HSV-2 [1]": {"tested_on": "HSV-2", "test": "Zosteriform spread model, percutaneous HSV-2 infection", "type": "in vivo, hairless mice (C3H/TifBom-hr)", "details": "for efficacy of topical treatment, in words: 2% by weight suspension in 30% isopropyl myristate, 70% ethanol; for Pathology index (cumulative): day 0 to day 21, 10 animals", "experimental": "To form a 2% by weight suspension, the active ingredients are mixed with 30% by weight isopropyl myristate/70% by weight of ethanol and sonified in a glass tube in an ultrasonic bath at 15° C. for 15 min.\nTo produce the ointment preparation, wool alcohol ointment complying with DAB 9 is employed. The active ingredient is suspended in a molten mixture of 0.5 parts by weight of cetyl stearyl alcohol (quality complying with DAB 9), 6 parts by weight of wool wax alcohol (quality complying with DAB 9) and 93.5 parts by weight of white petrolatum (quality complying with DAB 9). The mixture is stirred while cooling to room temperature (about 21° C.).\nTo produce a so-called “PEG isogel” preparation, the active ingredient is suspended or dissolved in the melt a mixture of lower molecular weight polyethylene glycol (PEG) and higher molecular weight PEG.\nA further gel preparation employed is a polyacrylate gel (so-called “carbogel”) which consists of 1 part by weight of Carbopol 974 P NF (manufacturer BF Goodrich, USA), […], 5 part by weight of 5% by weight (m/m) sodium hydroxide solution and 89 parts by weight of water. The preparation is produced by rubbing the Carbopol with the isopropanol, adding the active ingredient, and dispersing the mixture in water. The sodium hydroxide solution is added stepwise with stirring. A gel is formed.\n6-week old female hairless mice (C3H/TifBom-hr) are purchased from a commercial breeder (M&B A/S, Denmark) and infected with HSV one week later. The animals are anesthetized with diethyl ether (Merck) in a leakproof glass vessel. For the dermal infection, the skin on the right flank or in the neck region of the animal is scratched 10× crosswise with a sterile needle (0.6×25 mm). The skin pretreated in this way is inoculated with 10 μl of virus suspension (1×10^6 pfu HSV-2G; 1.5×10^6 p fu HSV-lwalki). The animals are inspected each day, and the pathology index is determined by means of the following scale: 0: no visible signs of infection, 1: blistering, 2: slight spread in the dermatome (shingles), 3: large areas affected (shingles), 4: confluent shingles bands, 5: paralysis of the extremities, 6: death. The particular pathology index of the group on the particular day is calculated by forming the average for all the animals in the group. The cumulative pathology index is calculated by totalling the pathology indices for individual days. The infection leads to death of 90-100% of the untreated animals due to a generalized infection with prominent central nervous symptoms an average of between 5 and 8 days. Moribund animals are euthanized. […]"}, "HSV-1": {"tested_on": "HSV-1", "test": "Ocular herpes model, HSV-1 infection", "type": "in vivo, mice (BALB/cABom)", "details": "for number of survivors of 10 infected animals: HSV-1, day 16 after infection; for number of survivors of 10 infected animals / Pathology index HSV-1 infection (cumulative): topical ophthalmic 2% by weight suspension 5x a day, day 0 to day 4; for Pathology index HSV-1 infection (cumulative): day 0 to day 16, 10 animals; for efficacy of topical treatment (eye drops), in words: ocular HSV infection, efficacy applies to HSV-1", "experimental": "(§1) To form a 2% by weight suspension, the active ingredients are mixed with Liquifilm eyedrops (Allergan, Ettlingen, Germany) (1 ml containing polyvinyl alcohol 14 mg, and as excipient chlorobutanol ½ H2O 5.25 mg, sodium chloride) and sonified in a glass tube in an ultrasonic bath at 15° C. for 15 min.\n(§2) 6-week old female mice, strain BALB/cABom (weight 19 g) are purchased from a commercial breeder (M&B A/S, Denmark) and infected with HSV one week later. The animals are anesthetized in a leakproof glass vessel with diethyl ether (Merck). For the ocular infection, the cornea of the right eye is lightly scratched three times horizontally and three times vertically with a sterile needle (0.4×20 mm). The cornea pretreated in this way is inoculated with 5 μl of virus suspension (5×10^7 pfu HSV-2G, 7.5×10^7 pfu HSV-lwalki). The infected animals are checked each day and examined for signs of an HSV infection (blepharitis, keratitis, encephalitis). The pathology index is set at 1 for affected animals, and the pathology index is set at 0 for symptom-free animals. The particular pathology index of the group on the particular day is calculated by summation for all the animals in the group. The cumulative pathology index is calculated by totalling the pathology indices on individual days. The infection leads to the death of 90-100% of untreated animals due to a generalized infection with prominent central nervous symptoms an average of between 5 and 8 days. Moribund animals are euthanized. The treatment takes place starting 3 h after the infection 5× a day for 5 days by instilling 5 μl of a 2% by weight active ingredient suspension in Liquifilm© eye drops (Allergan, Ettlingen, Germany) (1 ml containing polyvinyl alcohol 14 mg, and as excipient chlorobutanol ½ H2O 5.25 mg, sodium chloride) into the infected right eye of the animal."}, "HSV-2 [2]": {"tested_on": "HSV-2", "test": "Ocular herpes model, HSV-2 infection", "type": "in vivo, mice (BALB/cABom)", "details": "for number of survivors of 10 infected animals: HSV-2, day 16 after infection; for number of survivors of 10 infected animals / Pathology index HSV-2 infection (cumulative): topical ophthalmic 2% by weight suspension 5x a day, day 0 to day 4; for Pathology index HSV-2 infection (cumulative): day 0 to day 16, 10 animals; for efficacy of topical treatment (eye drops), in words: ocular HSV infection, efficacy applies to HSV-2", "experimental": "as §1, §2"}, "[3]": {"details": "HSV-2, right flank, 2% by weight suspension in 30% isopropyl myristate/70% ethanol on skin 2x a day, day 0 to day 4"}}}
{"smiles": "Cc1nc(N(C)C(=O)Cc2ccc(-c3cccc(F)c3)cc2)sc1S(N)(=O)=O", "note": "[N-[5-(aminosulfonyl)-4-methyl-1,3-thiazol-2-yl]-2-(3′-fluoro-1,1′-biphenyl-4-yl)-N-methylacetamide]", "values": [{"measurement": "efficacy of topical treatment, in words", "setting": "HSV-2 [1]; HSV-2, right flank", "value": "extensive efficacy"}, {"measurement": "Pathology index (cumulative)", "setting": "HSV-2 [1]; [3]", "value": 0.3}]}
{"smiles": "Nc1nc2c(ncn2COCCO)c(=O)[nH]1", "note": "[Aciclovir, reference compound]", "values": [{"measurement": "number of survivors of 10 infected animals", "setting": "HSV-1", "value": 7}, {"measurement": "Pathology index HSV-1 infection (cumulative)", "setting": "HSV-1", "value": 33}, {"measurement": "number of survivors of 10 infected animals", "setting": "HSV-2 [2]", "value": 1}, {"measurement": "Pathology index HSV-2 infection (cumulative)", "setting": "HSV-2 [2]", "value": 90}]}
{"smiles": "Cc1nc(N(C)C(=O)Cc2ccc(-c3ccccc3F)cc2)sc1S(N)(=O)=O", "note": "[N-[5-(Aminosulfonyl)-4-methyl-1,3-thiazol-2-yl]-2-(2′-fluoro[1,1′-biphenyl]-4-yl)-N-methylacetamide]", "values": [{"measurement": "efficacy of topical treatment, in words", "setting": "HSV-2 [1]; HSV-2, right flank", "value": "extensive efficacy"}, {"measurement": "Pathology index (cumulative)", "setting": "HSV-2 [1]; [3]", "value": 0.2}]}
{"smiles": "Cc1nc(N(C)C(=O)Cc2ccc(-c3cc(F)ccc3F)cc2)sc1S(N)(=O)=O", "note": "[N-[5-(Aminosulfonyl)-4-methyl-1,3-thiazol-2-yl]-2-(2′,5′-difluoro-1,1′-biphenyl-4-yl)-N-methylacetamide]", "values": [{"measurement": "number of survivors of 10 infected animals", "setting": "HSV-1", "value": 10}, {"measurement": "Pathology index HSV-1 infection (cumulative)", "setting": "HSV-1", "value": 0}, {"measurement": "efficacy of topical treatment (eye drops), in words", "setting": "HSV-1", "value": "extensive efficacy"}, {"measurement": "number of survivors of 10 infected animals", "setting": "HSV-2 [2]", "value": 4}, {"measurement": "Pathology index HSV-2 infection (cumulative)", "setting": "HSV-2 [2]", "value": 42}, {"measurement": "efficacy of topical treatment (eye drops), in words", "setting": "HSV-2 [2]", "value": "extensive efficacy"}]}
{"smiles": "Cc1nc(N(C)C(=O)Cc2ccc(-c3ccccc3)cc2)sc1S(N)(=O)=O", "note": "[N-[5-Aminosulfonyl)-4-methyl-1,3-thiazol-2-yl]-2-[1,1′-biphenyl]-4-yl-N-methylacetamide]", "values": [{"measurement": "efficacy of topical treatment, in words", "setting": "HSV-2 [1]; HSV-2, right flank", "value": "extensive efficacy"}, {"measurement": "Pathology index (cumulative)", "setting": "HSV-2 [1]; [3]", "value": 7.9}]}
{"smiles": "Cc1nc(N(C)C(=O)Cc2ccc(-c3ccccn3)cc2)sc1S(N)(=O)=O", "note": "[N-[5-(Aminosulfonyl)-4-methyl-1,3-thiazol-2-yl]-N-methyl-2-[4-(2-pyridyl)phenyl]acetamide]", "values": [{"measurement": "efficacy of topical treatment, in words", "setting": "HSV-2 [1]; HSV-2, right flank", "value": "extensive efficacy"}, {"measurement": "Pathology index (cumulative)", "setting": "HSV-2 [1]; [3]", "value": 0.3}, {"measurement": "effect of short treatment on infection, in words", "setting": "HSV-2 [1]; HSV-2G, neck region, 2% by weight PEG isogel 2x a day for 2 days (4 treatments)", "value": "completely suppressed"}, {"measurement": "Pathology index (cumulative)", "setting": "HSV-2 [1]; HSV-2G, neck region, 2% by weight PEG isogel on skin 2x a day, day 0 to day 1", "value": 0.3}, {"measurement": "efficacy of topical treatment with various formulations, in words", "setting": "HSV-2 [1]; HSV-2G, neck region, formulations with 3% by weight active ingredient", "value": "extensive efficacy"}, {"measurement": "number of survivors of 10 infected animals", "setting": "HSV-1", "value": 10}, {"measurement": "Pathology index HSV-1 infection (cumulative)", "setting": "HSV-1", "value": 0}, {"measurement": "efficacy of topical treatment (eye drops), in words", "setting": "HSV-1", "value": "extensive efficacy"}, {"measurement": "number of survivors of 10 infected animals", "setting": "HSV-2 [2]", "value": 9}, {"measurement": "Pathology index HSV-2 infection (cumulative)", "setting": "HSV-2 [2]", "value": 7}, {"measurement": "efficacy of topical treatment (eye drops), in words", "setting": "HSV-2 [2]", "value": "extensive efficacy"}]}
